Patent publication US11267859B2, “GM-CSF mimetics and methods of making and using same” (The Regents of the University of Colorado, a body corporate, priority 2017, dated 2022)

Key:
[1] = system: TF-1 cells; assay: ATPlite viability assay of GM-CSF-dependent TF-1 cells grown without GM-CSF; type: cell-based, human; settings: for activity as a GM-CSF mimetic/agonist: summary statement citing FIGS. 1A-1B, FIGS. 2A-2C; for GM-CSF receptor agonist activity (cell viability, ATPlite): TF-1 cells without GM-CSF, 1 nM, 10 nM or 50 nM
Description: FIGS. 1A-1B comprise bar graphs illustrating use of the ATPlite assay to examine the viability of the GM-CSF-dependent human erythroleukemic cell line TF-1 (Hansen, et al., 2008, Cell 134(3):496-507) treated with GM-CSF mimetics of the invention (M1, M5, or M6; 1 nM, 10, nM, or 50 nM). TF-1 cells grown in the absence of GM-CSF (control) served as a negative control, and TF-1 cells grown in the presence of GM-CSF (GM-CSF; 0.7 nM) served as a positive control. […] Error bars represent standard error of the mean. *** indicates P<0.0001, * indicates P≤0.03, compared to control.
In order to determine whether a synthetic fragment of GM-CSF or a construct comprising a combination of GM-CSF fragments linked together using PEG linkers is an agonist of the GM-CSF receptor, human cell lines dependent on GM-CSF for proliferation were employed: specifically, the human hematopoietic cell line TF-1 (Hansen, et al., 2008, Cell 134(3): 496-507) and the human cell line MOTE (Monfardini, et al., 2002, Curr Pharm Des 8(24):2185-2199) (both obtained from American Type Culture Collection, or ATCC).
In experiments with the TF-1 cell line, it was determined whether the GM-CSF mimetics of the invention were sufficient to support cell growth and viability in the absence of GM-CSF. Specifically, the cells were grown in medium without GM-CSF (control) as a negative control, in medium supplemented with GM-CSF (GM-CSF; 0.7 nM) as a positive control, or in medium supplemented with one of the GM-CSF mimetics of the invention (i.e., M1, M5, or M6; 1 nM, 10 nM, or 50 nM; FIGS. 1A-1B). Cell viability was measured using the ATPlite assay (PerkinElmer) to determine whether the GM-CSF mimetics of the invention were capable of maintaining the viability of TF-1 cells, which require GM-CSF, thus providing a measure of agonist activity.

[2] = system: transgenic mice that express the human GM-CSF receptor (hGMR mice); assay: Blood neutrophil response in transgenic hGMR mice after subcutaneous injection for three days; type: in vivo, mouse; settings: s.c.; for percentage of neutrophils at 72 h versus 0 h (paired T-test): three days, P<0.0019 for GM-CSF, P<0.0052 for M6
Description: FIGS. 3A-3B comprise a plot illustrating % change in neutrophil levels in blood from transgenic hGMR mice (Nishijima, et al., 1995, Mol. Biol. Cell 6(5):497-508) treated with saline (3 days) as a negative control, with human GM-CSF (hGM-CSF, 5 μg/day×3 days) as a positive control, with the GM-CSF mimetic M1 (M1 5 μg/day×3 days), or with the GM-CSF mimetic M6 (M6, 5 μg/day×3 days) (FIG. 3A). Each connected symbol represents an individual hGMR mouse pre- and post-treatment (0 h and 72 h, respectively). Error bars represent standard error of the mean. […] To determine whether the PEG-based GM-CSF mimetics of the invention are active in vivo, the GM-CSF mimetic molecules M1 and M6 were tested in transgenic mice that express the human GM-CSF receptor and are responsive to human GM-CSF, referred to herein as hGMR mice (Nishijima, et al., 1995, Mol. Biol. Cell 6(5):497-508). The hGMR mice were tested for their responses to M1 or M6. Specifically, the study included four groups of mice: (1) hGMR mice injected subcutaneously with saline (n=4 mice) as a negative control (Saline); (2) hGMR mice injected subcutaneously with commercial human GM-CSF ([…]; n=13 mice) as a positive control, because these mice should respond to human GM-CSF; (3) hGMR mice injected subcutaneously with M1 (5 μg/animal/day; n=5 mice); and (4) hGMR mice injected subcutaneously with M6 (5 μg/animal/day; n=6 mice) for three days. Blood samples were collected before the mice received any injections of saline, human GM-CSF, M1, or M6, and blood samples were also collected after the three days of injections. The percentage of neutrophils present in the blood post-treatment was measured by counting from whole blood smears. FIG. 3A illustrates trends in the percentages of neutrophils in individual mice from each of the four groups; each connected symbol represents an individual hGMR mouse pre- and post-treatment (0 h and 72 h, respectively). FIG. 3B compares the changes in the percentage of neutrophils over the course of the treatment for each of the four groups.

[3] = system: TF-1 cells; assay: Live cell counts of GM-CSF-starved TF-1 cells by flow cytometry (DAPI); type: cell-based, human; settings: TF-1 starved of GM-CSF 24 h, FIG. 2A
Description: FIGS. 2A-2C illustrate results of experiments wherein the GM-CSF-dependent human erythroleukemic cell line TF-1 was starved of GM-CSF for 24 h prior to treatment with media containing GM-CSF, with medium containing a GM-CSF mimetic (M1, M5 or M6; 10 nM or 100 nM), or with control medium lacking GM-CSF. The cells were fed fresh medium each day to replenish indicated concentrations (10 nM or 100 nM). Live cell counts from 3-4 replicates were plotted for each of the different conditions in FIG. 2A. […] The plots were gated by front and side scatter for singlets, then gated by DAPI, wherein DAPI-positive cells were dead and DAPI-negative cells were alive, and front scatter for live cells indicated in the selected region with the cell numbers represented below the plots.
Evaluation of ability of the GM-CSF mimetics to support cell growth was carried out by measuring cell number and cell viability by flow cytometry. The TF-1 cell line was first starved of GM-CSF for 24 h, and then plated in various conditions. […] At 72 h post-treatment, the cells were treated with DAPI (1 μg/ml) to label the nuclei of dead cells and were analyzed on a Yeti cell analyzer from Propel Labs. […] Each dot represents an individual measured cell, and increased color by “heat map” indicates a large group of cells with overlapping DAPI and forward scatter area.

| Substance | activity as a GM-CSF mimetic/agonist [1] | percentage of neutrophils at 72 h versus 0 h (paired T-test) [2] | GM-CSF receptor agonist activity (cell viability, ATPlite) ([1]; 24 h post-treatment (FIG. 1A)) | GM-CSF receptor agonist activity (cell viability, ATPlite) ([1]; 48 h post-treatment (FIG. 1B)) | live cell counts versus negative control ([3]; 10 nM or 100 nM replenished daily, 72 h post-treatment) | number of live cells versus control ([3]; 100 nM replenished daily, P<0.042) | % change in neutrophils versus saline control group ([2]; 5 μg/animal/day for three days, student's T-test, P<0.046, FIG. 3B) |
| --- | --- | --- | --- | --- | --- | --- | --- |
| DFLLVIP (SEQ ID NO: 8) [Mimetic M2, human GM-CSF peptide fragment, aa 112-118 of mature GM-CSF] | active as a GM-CSF mimetic/agonist | – | – | – | – | – | – |
| GM-CSF: granulocyte-macrophage colony-stimulating factor; commercial human GM-CSF used as positive control | – | statistically significantly higher at 72 h than at 0 h | – | – | – | – | – |
| QPWEHVNAIQEAR (SEQ ID NO: 7) [Mimetic M1] | active as a GM-CSF mimetic/agonist | – | GM-CSF receptor agonist activity | the agonist effect is also replicated | significant increase in the cell counts over the negative control | – | – |
| QPWEHVNAIQEAR {PEG6} DFLLVIP {PEG6} DFLLVIP {PEG6} QPWEHVNAIQEAR [Mimetic M6] | – | statistically significantly higher at 72 h than at 0 h | GM-CSF receptor agonist activity | the agonist effect is also replicated | – | significantly lower than control | statistically significantly higher than that for the saline control group |
| QPWEHVNAIQEAR {PEG6} DFLLVIP {PEG6} QPWEHVNAIQEAR {PEG6} DFLLVIP [Mimetic M5] | – | – | GM-CSF receptor agonist activity | the agonist effect is also replicated | – | – | – |
